In patent US8802675B2, “Neuroprotective multifunctional compounds and pharmaceutical compositions comprising them” (priority 2009, dated 2014):

How the values were obtained:
[1] = system: ChE from rat brain homogenates; assay: Time course of total ChE inhibition at 1 μM versus rivastigmine; assay type: biochemical; conditions: 1 μM, time course
Protocol: The new carbamates of the present invention are expected to act as rivastigmine and inhibit ChE activity. […] Enzyme activity was determined with Ellman's colorimetric method after addition of substrate, and the results are shown in FIGS. 8A-8B.

[2] = molecular target: T1, total cholinesterase (ChE) (Rattus norvegicus, UniProt P37136); assay: Total cholinesterase inhibition in rat brain homogenates (Ellman); assay type: biochemical
T1 sequence (P37136 32-614): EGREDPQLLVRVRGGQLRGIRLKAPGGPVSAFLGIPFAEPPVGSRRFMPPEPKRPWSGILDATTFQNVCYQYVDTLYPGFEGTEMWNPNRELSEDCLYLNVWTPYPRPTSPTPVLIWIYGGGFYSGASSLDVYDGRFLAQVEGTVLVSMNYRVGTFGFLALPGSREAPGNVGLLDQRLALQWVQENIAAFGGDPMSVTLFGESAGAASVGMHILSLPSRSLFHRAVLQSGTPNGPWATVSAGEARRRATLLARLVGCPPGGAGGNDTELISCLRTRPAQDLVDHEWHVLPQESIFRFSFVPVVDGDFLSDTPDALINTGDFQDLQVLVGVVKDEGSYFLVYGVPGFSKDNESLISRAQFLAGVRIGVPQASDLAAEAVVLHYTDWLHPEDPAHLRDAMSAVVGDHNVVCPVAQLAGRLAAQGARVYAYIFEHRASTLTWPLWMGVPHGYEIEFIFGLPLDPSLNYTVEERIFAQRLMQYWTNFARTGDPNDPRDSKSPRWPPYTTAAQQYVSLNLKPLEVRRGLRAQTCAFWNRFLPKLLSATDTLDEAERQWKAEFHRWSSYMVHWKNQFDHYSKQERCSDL
Protocol: Cholinesterase activity was determined in rat brain homogenate following incubation with varying concentrations of the multifunctional pro-chelators of the invention (also referred to herein as “carbamates”).
Ellman's colorimetric method was adapted for determination of total cholinesterase (ChE) and butyrylcholinesterase (BuChE) activities in rat brain homogenates. Brain tissue from adult Wistar rats was homogenized at 2% w/v (or 10% w/v, for BuChE) in 0.1 M sodium phosphate buffer, pH 7.4, with added NaCl 58.5 g/l and Triton X-100 0.05% v/v. Aliquots of homogenate (20 μl) were incubated with the test compounds for designed time intervals in phosphate buffer pH 7.4, before addition of 5,5′-dithiobis(2-nitrobenzoic) acid and either 1 mM acetylthiocholine iodide or 10 mM butyrylthiocholine iodide (Sigma, St. Louis, Mo.). The reaction was run at 37° C. in a final volume of […] in 96-well microplates and was followed at 412 nm for 5 min with a plate reader. In every experiment, cholinesterase-independent (nonspecific) substrate hydrolysis was determined by including one experimental group treated with tacrine 30 μM. Appropriate tissue and reagent blanks were also included. Reaction velocities were determined in three or four replicates per condition; these were averaged and expressed as percent activity relative to control (solvent), after subtracting the rate of nonspecific hydrolysis.
The results are the mean SEM, n=3 in triplicates. ND—not determined.

rat brain MAO-A = molecular target: T2, rat brain MAO-A (Rattus norvegicus, UniProt P21396); assay: biochemical; conditions: for IC50: IC50 MAO-A, rat brain homogenate in vitro, mean SEM, n=3 in triplicates
T2 construct: from tissue; host or cells: rat brain homogenate
T2 sequence (P21396 1-526): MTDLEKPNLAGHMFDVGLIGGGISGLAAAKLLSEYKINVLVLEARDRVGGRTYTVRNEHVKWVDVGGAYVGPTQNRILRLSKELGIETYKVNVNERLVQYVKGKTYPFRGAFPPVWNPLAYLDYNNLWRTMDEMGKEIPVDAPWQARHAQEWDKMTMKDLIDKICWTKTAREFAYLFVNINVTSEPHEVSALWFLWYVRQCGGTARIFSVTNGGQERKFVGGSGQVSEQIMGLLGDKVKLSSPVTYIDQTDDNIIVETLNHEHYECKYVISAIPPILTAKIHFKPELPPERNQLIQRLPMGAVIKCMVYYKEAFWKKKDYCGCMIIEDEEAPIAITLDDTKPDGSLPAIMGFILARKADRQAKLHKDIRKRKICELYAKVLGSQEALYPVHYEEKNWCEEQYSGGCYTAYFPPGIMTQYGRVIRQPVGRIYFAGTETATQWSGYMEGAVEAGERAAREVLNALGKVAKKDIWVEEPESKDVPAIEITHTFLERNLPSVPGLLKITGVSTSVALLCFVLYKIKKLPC
Protocol: (§1) Rats were decapitated and the brains were quickly taken into a pre-weighted ice-cold sucrose buffer (10 mM Tris-HCl buffer, pH 7.4, containing 0.32 M sucrose), and their weights were measured. The brains were homogenized at 0-4° C. in 0.32 M sucrose (one part tissue to 20 parts sucrose) in a Teflon glass homogenizer. The resultant homogenates were used to determine MAO activity. Protein concentration was determined with Bradford reagent at 595 nm, using bovine serum albumin as a standard.
(§2) The activity of MAO-A and MAO-B were determined by the adapted method of Tipton & Youdim (Tipton et al. 1983). Briefly, the multifunctional compound tested was added to a suitable dilution of the enzyme preparation (70 μg MAO-B and 150 μg MAO-A) in 0.05 M phosphate buffer (pH 7.4). The mixture was incubated together with 0.05 μM 1-deprenyl, a specific inhibitor of MAO-B (for determination of MAO-A activity in the presence of the test compound) or 0.05 μM clorgyline a specific inhibitor of MAO-A (for determination of MAO-B activity). […] The reaction was stopped with 2M ice-cold citric acid, and the radioactive metabolites (5-hydroxytryptaldehyde and phenylacetaldehyde) were extracted by addition of 2 ml of ethylacetate/toluene (1:1 vol/vol). The radioactivity contained in the organic phase was determined by liquid-scintillation counting in cpm units.
(§3) MAO-A and MAO-B activities were determined in rat brain homogenate in vitro following incubation with varying concentrations of the test compounds.
(§4) The results are the mean SEM, n=3 in triplicates.

rat brain MAO-B = molecular target: T3, rat brain MAO-B (Rattus norvegicus, UniProt P19643); assay: biochemical; conditions: for inhibition at 10 µM: read-out: percent inhibition MAO-B
T3 construct: from tissue; host or cells: rat brain homogenate
T3 sequence (P19643 1-520): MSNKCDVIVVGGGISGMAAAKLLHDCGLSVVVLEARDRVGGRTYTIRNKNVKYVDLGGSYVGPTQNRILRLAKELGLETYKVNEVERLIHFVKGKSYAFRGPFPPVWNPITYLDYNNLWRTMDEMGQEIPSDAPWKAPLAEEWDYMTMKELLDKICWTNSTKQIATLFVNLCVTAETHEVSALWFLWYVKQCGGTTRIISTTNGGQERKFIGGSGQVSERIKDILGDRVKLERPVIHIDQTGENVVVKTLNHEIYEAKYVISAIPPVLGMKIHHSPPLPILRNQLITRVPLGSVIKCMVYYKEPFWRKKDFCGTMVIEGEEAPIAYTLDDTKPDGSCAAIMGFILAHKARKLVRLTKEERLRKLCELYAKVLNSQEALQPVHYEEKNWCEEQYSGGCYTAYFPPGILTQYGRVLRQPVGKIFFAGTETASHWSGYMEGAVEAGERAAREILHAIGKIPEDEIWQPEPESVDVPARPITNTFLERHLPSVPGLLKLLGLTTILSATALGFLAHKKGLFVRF
Protocol: as §1, §2, §3, §4

[3] = molecular target: T4, rat brain cholinesterase (total ChE) (Rattus norvegicus, UniProt P37136); assay: Kinetics of irreversible cholinesterase inhibition (Kitz-Wilson); assay type: biochemical
T4 construct: rows headed: Ki (dissociation constant for EI); other: rat brain total ChE; mean of 3-4 experiments; k+2 (carbamylation rate constant); other: from ki; rate of carba
T4 sequence (P37136 32-614): T1 sequence (P37136 32-614)
Protocol: To determine kinetic constants of irreversible inhibition, cholinesterase from rat brain homogenates was incubated with the multifunctional compounds of the invention for designed time intervals in phosphate buffer pH 7.4.
The residual cholinesterase activity was immediately measured with the Ellman's colorimetric method after addition of 5,5′-dithiobis(2-nitrobenzoic) acid and 1 mM acetylthiocholine iodide. The inhibition kinetics were assessed according to Kitz-Wilson equation:
[formula] wherein: E represents the enzyme; I represents the intact carbamate (inhibitor); EI is the initial reversible enzyme complex; E* is the carbamylated enzyme; Ki represents the dissociation constant for EI; k+2 is the carbamylation rate constant and k+3 is the decarbamylation rate constant; kapp is the pseudo-first-order inhibition rate constant; ki, the second-order rate inhibition constant, is approximated by k+2/Ki. Under experimental condition [I]>>[E0].
According to equation (2), the logarithm of the ratio of the residual cholinesterase activity (E) and the initial cholinesterase activity (E0) is plotted against the time of incubation. The slopes of the lines representing kapp were determined by linear regression.
The slopes of the lines represent the pseudo-first-order inhibition rate constant (kapp) determined from linear regression analysis. […] The carbamylation rate constant (k+2) was obtained from the y-intercept, and the dissociation constant ([…] was obtained from the slope of the line multiplied by k+2 as described in Materials and Methods.
From these lines, the values of kapp were calculated based on Equation (2) of the Kitz-Wilson equations (see Material and Methods). […] The carbamylation rate constant k+2 is a measure of inactivation of ChE.

[4] = Metal chelation assay (UV-vis spectra of metal complexes); assay type: physicochemical; conditions: ZnCl2, CuSO4, FeCl3 and FeSO4; 5% NH4Ac, pH=7
From the text: Metal chelation, particularly iron chelation, is an important precondition for the antioxidative-function of the multi-functional compounds of the invention, because it is the excessive iron stores and iron-mediated generation of free radicals in the brain that are thought to be associated with neurodegenerative diseases. The novel strategy, according to the present invention, for the treatment of neurodegenerative diseases such as Alzheimer's disease is the design of pro-chelators that inhibit AChE with a concomitant release of the active chelators. This novel strategy has advantages over the current chelator strategy since it is capable not only of minimizing the potential toxicity associated with strong chelators such as the 8-hydroxyquinoline derivatives disclosed in WO 2004/041151, which might interfere with healthy metal metabolism in the brain, but it also offers multiple activities against AChE, Aβ aggregation, oxidative stress, and metal (Fe, Cu, Zn) dyshomeostasis in the brain. Therefore, a metal chelation assay was used to confirm that the new multifunctional pro-chelators that comprise an N,N-dialkylcarbamoyl moiety [N(RR′)CO—] linked to the oxygen at position 8 of quinoline would have little to no affinity for metal ions in their pro-drug form. When these pro-chelators bind to cholinesterase or AChE in the brain, the N,N-dialkylcarbamoyl moiety is dissociated, thus unmasking a free hydroxyl group at said position 8 of quinoline, turning the pro-chelators into active chelators, which passivate excess cerebral metal ions and protect neuronal cells against reactive oxygen species (ROS).
A spectrophotometric method was used for measurement of metal complexes of the multifunctional pro-chelators of the invention with metal ions selected from Zn^2+, Cu^2+, Fe^3+ and Fe^2+, and compared to the respective metal complexes of some known iron chelators disclosed in WO 2004/041151.
Thus, the metal chelating function of compound 13 and compound 23 as compared to M30 and HLA20, respectively, was measured by dissolving 0.1 mM or 0.2 mM of the test compounds in 5% NH4Ac, pH=7, in the presence and absence of 0.1 mM or 0.2 mM of the metal salts […], CuSO4, FeCl3 and FeSO4, and measuring the UV-vis spectra (Hewlett-Packard 8450A diode array spectrophotometer) of the various metal complexes formed. The results for M30 and compound 13 are shown in FIGS. 1A and 1B, respectively.

[5] = system: human SH-SY5Y neuroblastoma cells; assay: MTT cell viability assay in SH-SY5Y cells; assay type: cell-based; conditions: MTT after 48 h incubation
Protocol: Cell culture. Human neuroblastoma SH-SY5Y cells were obtained from American Type Culture Collection (Rockville, Md., USA). Cells were routinely cultured in MEM-Eagle/F-12(HAM) (1:1), containing 10% FCS and a mixture of 2% sodium bicarbonate, 1% penicillin/streptomycin/nystatin and 1% sodium pyruvate. Cell cultures were incubated at 37° C. in a humid 5% CO2-95% air environment.
Twenty-four hours after attachment of the SH-SY5Y cells, the medium was replaced with DMEM containing 0.1% BSA. The test compounds were added to the cells after 1 h of incubation. After 24 h incubation, the cells were subjected to MTT test as previously described (Gassen et al., 1998). The absorption was determined in a Perkin-Elmer Dual Wavelength Eliza-Reader at λ=570/650 nm after automatic subtraction of background readings. The results are expressed as percentage of the untreated control.
The effect of the iron chelators M30 and HLA20 versus that of the pro-chelators 13 and 23, on viability of human SH-SY5Y cells was tested. Human SH-SY5Y neuroblastoma cells were plated in 100-mm culture dishes and cultured in DMEM (4,500 mg/l glucose), containing 10% FCS (fetal calf serum, Bet Haemek, Israel), and 1% of a mixture of penicillin/streptomycin/nystatin. When cells reached the required confluence, they were detached and re-cultured in microtiter plates (96 wells) pre-coated with collagen ([…]), in DMEM with 10% of fetal calf serum (0.5×10^4 cells/well). Cell viability was tested by the 3-(4,5-dimethylthiazol-2-yl)-2,5-diphenyltetrazolium (MTT) assays after 48 h incubation.

SMILES	ChE inhibition compared with rivastigmine and other carbamates [1]	IC50 ([2]; rat brain homogenates, mean SEM, n=3 in triplicates)	IC50 (rat brain MAO-A)	inhibition at 10 µM (rat brain MAO-B)	inhibition at 50 µM ([2]; read-out: percent inhibition Total ChE)	potency in inhibiting ChE relative to rivastigmine ([3]; from ki)	kinact/KI ([3]; pH 7.4, read-out: ki (second-order rate inhibition constant, approximated by k+2/Ki))	binding of metal ions (shift of absorbance peak) [4]	cell viability ([5]; 10 μM)	cell viability ([5]; 25 μM)	cell viability ([5]; 50 μM)	inhibitory effect on MAO-A (rat brain MAO-A; rat brain homogenate)	inhibitory effect on MAO-B (rat brain MAO-B; rat brain homogenate)
C#CCN(C)Cc1ccc(OC(=O)N(C)C)c2ncccc12 [Compound 2, 5-((methyl(propargyl)amino)methyl)quinolin-8-yl dimethylcarbamate]	more potent than	520 nM	< 100 nM	67%	–	–	–	–	–	–	–	–	–
C#CCN(C)Cc1ccc(OC(=O)NCCCCCC)c2ncccc12 [Compound 4, 5-((methyl(propargyl)amino)methyl)quinolin-8-yl hexylcarbamate]	–	–	< 100 nM	25%	43%	half potent	39 M⁻¹ s⁻¹	–	–	–	–	–	–
C#CCN1CCN(Cc2ccc(O)c3ncccc23)CC1 [HLA20, reference compound]	–	–	–	–	–	–	–	binds the respective metal ions	≤ 75%	≤ 75%	almost all the cells died	minor to none inhibitory effects	minor to none inhibitory effects
